Reference: US12577232B2, “N-heterocycle substituted tryptamine derivatives and methods of using” (ENVERIC B[…] INC., priority 2024, dated 2026)
Like-named read-outs stand apart in the source and are kept apart here.

How the values were obtained:
[1] = test system: human model (NT2) neurons; experiment: Neuroplastogenicity (neurite outgrowth) assay in NT2 neurons; format: cell-based; set-up: key: a positive (+) designation indicating strong evidence of enhanced neurite outgrowth in drug-treated NT2 cells compared to vehicle-treated cells; a negative (−) designation indicating weak or no evidence of enhanced neurite outgrowth in drug-treated NT2 cells compared to vehicle-treated cells; settings: 1 or 10 μM, 48 h, visual inspection vs vehicle (0.1% DMSO)
From the text: Classic psychedelics such as psilocybin and DMT show potential to treat anxiety and depression, and it has been theorized that such long-term improvements arise because these drugs rapidly and lastingly stimulate neuroplasticity (Calder and Hasler, 2023, Neuropsychopharmacol. 48:104-112). Thus, it was of interest to determine the potential of new compounds as neuroplastogens. Herein, we assess the capacity of various compounds to enhance neurite outgrowth in human model (NT2) neurons.
Human NT2/D1 precursor cells were purchased from the American Type Culture Collection (ATCC, Manassas, VA, USA). Neuronal differentiation was carried out as previously described (Roloff et al., 2015, PloS ONE 10:e0118536) with minor modifications. Firstly, NT2/D1 cells were seeded in T-25 suspension culture flasks (REF #690190, Greiner bio-one, Germany). Each flask contains a minimum of 5×10^6 cells in 10 ml of DMEM/F12 supplemented with 10% fetal bovine serum (FBS), 1% penicillin and streptomycin and 10 μM retinoic acid (RA) medium to start neuronal differentiation. The cells were cultured for 3 days in free floating medium. At the end of the incubation cells were trypsinized and collected by centrifugation, mechanically dispersed, and counted. Counted cells were seeded along Poly D-Lysine (PDL) coated cover slips (12 mm; diameter round, Fisher Scientific; GG-12-PDL) containing a minimum of 0.1×10^5 cells in culture medium without RA. The next day culture medium was replaced with RA medium containing 2% of FBS. These cells cultured for 5 days and two days later, RA medium was changed.
After cells had successfully attached and established along coverslips, the RA medium was replaced with new medium containing 2% FBS and one of the following: (1) test compound (1 or 10 μM), (2) RhoK (ROCK) inhibitor Y-27632 (1 μM) as a positive control (Dihydrochloride; Sigma-Aldrich) (Roloff et al., 2015, PloS ONE 10:e0118536); (3) DMT (1 or 10 μM) as a positive control (Calder and Hasler, 2023, Neuropsychopharmacol. 48:104-112), or (4) vehicle (0.1% DMSO) as a negative control. These cells were incubated for 48 hours under standard conditions (370C, 5% CO2). The cells cultured along coverslips were collected after 48 hours of treatment. The coverslips washed with calcium chloride and magnesium chloride-free phosphate buffered saline (PBS) pH 7.4 (Gibco, #70011-044) and fixed in paraformaldehyde (PFA) 4% in PBS (#J61899, thermoscientific) for 15 min at room temperature (RT) and washed three times with 0.01% of Triton-X100 in PBS (PBST) to remove remaining PFA and to permeabilize the cells. Non-specific binding sites were blocked with 5% of Bovine Serum Albumin (BSA) solution (#9048-46-8, Millipore) in PBST for 60 minutes at RT. Rabbit monoclonal antibody β-III-tubulin (1:5,000, ab52623, Abcam) was applied overnight (O/N) at 4° C. Next day cells are washed three times in PBST, neurons were incubated with secondary antibody Donkey anti-rabbit IgG(H+L) Alexa Fluor™ Plus488 (1:5000 #A32790, Invitrogen) for 1 hour at RT. These coverslips were mounted on Gluoromount-G™, with 4′6-diamidino-2′henylindoldihydrochloride (DAPI) (#E141818, Invitrogen). The immunofluorescence images were analyzed using an Olympus VS110 slide scanner microscope.
B-III-Tubulin immunofluorescence was quantified using ImageJ. Briefly, Corrected Total Cell Fluorescence (CTCF) was acquired for at least ˜8-10 representative cells, where CTCF=Integrated Density−[Area of selected cell*Mean Fluorescence of background]. The CTCF values, referred to herein as ‘signal intensities’, were used to calculate overall means±SD for each treatment. One-Way ANOVA was used to compare treatments. Further, the mean of each treatment was compared with the mean of the control treatment (RA-differentiated cells treated with vehicle, 0.1% DMSO) using Dunnett's multiple comparison procedure. […]

[2] = Mouse plasma pharmacokinetics (PK) survey; format: in vivo; settings: for AUC: male, C57BL6, mouse, read-out: AUCt0-tlast; for AUC / Cmax: ip; for Cmax: mouse
Method: The purpose of the study was to gain insight into the pharmacokinetic (PK) behaviour of drugs in rodents. In some contexts, drug exposure and other PK parameters may be linked to the onset and/or degree of drug efficacy. Toward the goal of assessing PK behaviour, objectives included the collection of plasma from male mice at various times after (1) a single ‘low’ IP (intraperitoneal) dose (4 mg/kg), and (2) a single ‘high’ IP dose (10 mg/kg) of drug for pharmacokinetic monitoring. The experiment was designed to enable the determination of key parameters (e.g., Cmax, AUC) and was conducted in partnership with Inotiv (Boulder, Colorado; www.inotiv.com; Studies 3533-2302132 and 3533-2302538).
The study which took part in two phases (No. 3533-2302132 and 3533-2302538) was conducted by CRO Inotiv (Boulder, CO) and was performed in accordance with the test facility standard operation procedures (SOPs), the World Health Organization Quality Practices in Basic Biomedical Research guidelines, and in compliance with all US state and federal regulations, including USDA Animal Welfare Act 9 CFR Parts 1-3. Federal Register 39129, Jul. 22, 1993. All mice were male, belonging to stain C57BL6 (supplier Envigo). Upon arrival at the facility, the mice were 6 weeks old and were acclimated 7 days prior to injection with food and water ad libitum (3 animals/cage).
Three cohorts of mice were included (n=6 per cohort): (1) control (vehicle treatment), (2) 4 mg/kg compound (XV), and (3) 10 mg/kg compound (XV). On day 0 of the study, animals were randomized into cohorts based on body weight. Dosing (i.p. dose route) was performed on Day 1. Sampling of plasma was performed under anesthesia (inhaled isoflurane) on 3 of 6 animals per cohort at 6 time points (15 min 30 min, 1 h, 2 h, 4 h, and 6 h post-dose) followed by sacrifice at 8 h post-dose, ex-sanguination and final plasma collection. Whole blood (100 μL) was collected for plasma preparation using K2EDTA on ice (centrifugation within 5 min of collection), for a final plasma volume of 50 μL. Samples were stored at −80° C. until analysis.
Bioanalytical analysis of plasma was carried out using standard LC-MS/MS procedures. Prior to analysis of plasma, drug-specific quantification metrics (e.g., standard curve, LOD, Rt) were pre-established using authentic standard (>95%). Calculated concentrations (ng/mL) of analyte were used to determine PK parameters (Cmax, AUC) within the limits of detection (LOD).

[3] = plasma, 4 mg/kg, male C57BL6 mice, plasma, 4 mg/kg i.p.
[4] = plasma, 10 mg/kg, male C57BL6 mice, plasma, 10 mg/kg i.p.
[5] = male C57BL6 mice, plasma, 4 mg/kg i.p.
[6] = male C57BL6 mice, plasma, 10 mg/kg i.p.

SMILES | Evidence of neurite outgrowth: Yes (+) or No (−) [1] | AUC [2, 3] [ng·h/mL] | AUC [2, 4] [ng·h/mL] | Cmax [2, 5] [ng/mL] | Cmax [2, 6] [ng/mL] | AUCt0-tlast ([2]; male C57BL6 mice, plasma, 4 mg/kg i.p., 4 mg/kg) [ng·h/mL] | detectability in plasma ([2]; most mice, eight hours post-administration, i.p.)
CN(C)CCc1c[nH]c2cc(N3CCC3)ccc12 [Compound (XII)] | + | 39.7 ± 3 | 145 ± 5.3 | 92.8 ± 17.2 | 302 ± 33.7 |  | 
CN(C)CCc1c[nH]c2cc(N3CCCC3)cc(F)c12 [Compound (XVIII)] | + | 19.6 ± 0.7 | 76.4 ± 11.5 | 8.8 ± 1.2 | 87.5 ± 8.5 |  | 
CC(C)N(C)CCc1c[nH]c2cc(N3CCOCC3)c(F)cc12 [Compound (XVII)] | + | 24.2 ± 1.6 | 164 ± 7.2 | 62.1 ± 3.9 | 384 ± 14.2 | 27.2 ± 1.6 | 
CN(C)CCc1c[nH]c2cc(F)cc(N3CCOCC3)c12 [Compound (XV)] | + | 241 ± 71.6 | 590 ± 30.9 | 101 ± 4.9 | 459 ± 16.4 |  | still detectable
